Laboratory results as given in patent US11707511B2, “Vaccine compositions and methods of using the same” (The Board of Supervisors of Louisiana State University and …, priority 2017, dated 2023).
“Also recorded” adds a separate entry of the source.

B1: 7H6A2: IgG2b mAb of hybridoma 7H6A2, specific for Met6 peptide (antibody)
heavy: QIQLVQSGPELKKPGETVKISCKASGYTFTDFSMHWVKQAPGKGLKWMGWINTETVEPTYADDFKGRFAFSLETSASTAYLQINNLKNEDTATYFCSRVSYDGYYGDFAMDYWSQGTSVTVSSAKTTAPSVYPLAPVCGDTTGSSVTLGCLVKGYFPEPVTLTWNSGSLSSGVHTFPAVLQSDLYTLSSSVTVTSSTWPSQSITCNVAHPASSTKVDKKIEPRGPTIKPCPPCKCPAPNLLGGPSVFIFPPKIKDVLMISLSPIVTCVVVDVSEDDPDVQISWFVNNVEVHTAQTQTHREDYNSTLRVVSALPIQHQDWMSGKEFKCKVNNKDLPAPIERTISKPKGSVRAPQVYVLPPPEEEMTKKQVTLTCMVTDFMPEDIYVEWTNNGKTELNYKNTEPVLDSDGSYFMYSKLRVEKKNWVERNSYSCSVVHEGLHNHHTTKSFSRTPGK
light: DIQMTQTTSSLSASLGDRVTISCRASQDISNYLNWYQQKPDGTVKLLIYYTSRLHSGVPSRFSGSGSGTDYSLTISNLEQEDIATYFCQQGNTLPWTFGGGTKLEIKRADAAPTVSIFPPSSEQLTSGGASVVCFLNNFYPKDINVKWKIDGSERQNGVLNSWTDQDSKDSTYSMSSTLTLTKDEYERHNSYTCEATHKTSTSPIVKSFNRNEC

Key:
[1] = system: C. tropicalis (ATCC 20336); experiment: Peptide-vaccinated mice challenged with lethal dose of C. tropicalis; type: in vivo; conditions: for survival: FIG. 3A, i.v. challenge 1×10^6/mouse, up to 80 days; for live fungal cells (CFU) in kidneys as compared to controls: FIG. 3B, p<0.001
Experimental: (§1) Active Immunizations with peptide pulsed dendritic cells. […] It allows us to perform rapid throughput evaluation of candidate short peptides. When protective double universal peptide conjugate(s) become identified by this study, immunization approaches suitable for human use will be applied in further studies. All active vaccinations were conducted as previously described (6,7,9). DCs were pulsed in vitro with universal peptide as described before with minor modification by totally removing CFA for last booster (6). Briefly, DCs in culture were pulsed with the peptide antigen (1 μM) on day 6. On day 7, PGE2 (10^-7M) was added along with LPS (2 μg/ml, Sigma) for 24 h to induce DC maturation. On day 9, antigen-pulsed DCs were washed extensively and […] in 200 μl DPBS were given by intraperitoneal (i.p.) route as the priming dose to mice. The mice were boosted i.p. at day 14 and day 28 with fresh antigen-pulsed DCs without adjuvant.
Peptide-vaccinated mice were challenged with lethal dose of live C. tropicalis cells (ATCC 20336; i.v. challenge dose: 1×10^6/mouse).

[2] = system: C. glabrata CBS138 (ATCC 2001); experiment: Peptide-vaccinated, cyclophosphamide-immunosuppressed mice challenged with C. glabrata; type: in vivo; conditions: FIG. 4; 1×10^7 cells/mouse
Experimental: as §1
Peptide vaccinated mice were also challenged with C. glabrata, which has emerged as the second most common cause of invasive candidiasis in the US. Since C. glabrata is not lethal for wild-type mice, immunosuppression in vaccinated mice were induced by cyclophosphamide (50 mg/kg) treatment for two weeks, and then mice were challenged with live C. glabrata cells [CBS138 (ATCC 2001), 1×10^7 cells/mouse]. […] CFU experiments will be performed and completed. […]

C. albicans = experiment: Active immunization with peptide-pulsed dendritic cells, disseminated candidiasis caused by C. albicans in mice; type: in vivo, Candida albicans; conditions: for protection against disseminated candidiasis caused by C. albicans: FIG. 2, antigen-pulsed DC vaccine without CFA; for CFUs in kidneys as compared to controls: FIG. 2 B and D
Experimental: as §1
Table 2 lists universal peptide vaccines that induced protection against disseminated candidiasis caused by C. albicans in mice. The universal peptide vaccines listed in Table 1 are expressed at high homology by all analyzed medically important Candida species in addition to C. albicans (see details at Table 2). By dendritic cell (DC) based immunization approach as described herein, each of the universal peptide vaccines was able to protect mice against disseminated candidiasis caused by C. albicans, with the survival rate 80-100% up to 80-120 days post challenge.
(§2) To perform rapid throughput evaluation of peptide vaccine candidates, immunizations were done by use of the similar antigen-pulsed DC based vaccine strategy with modification by totally removing CFA from vaccine formula. Fba peptide was used as positive control.

[3] = Induction of specific anti-peptide antibody responses in immunized mice; type: in vivo; conditions: BALB/c mice; peptide-pulsed DC; data not shown
Excerpt: as §2
The double chimeric peptide conjugate vaccines have been tested for their abilities to induce specific anti-peptide antibodies and protective immunity against the disease caused by C. albicans. […] The enhancement in vaccine efficacy was evidenced by both increased survival and reduced or non-detectable fungal burden (colony forming units, CFUs) in kidneys of animals.

C. auris = experiment: Passive transfer of mAbs in cyclophosphamide-immunosuppressed B6.129X1Elane mice, disseminated infection by C. auris; type: in vivo, Candida auris; conditions: 2×108 C. auris i.v.
Experimental: An immunocompromised murine model of disseminated infection by C. auris was developed. To induce immunosuppression, Jackson B6.129X1Elane mice received a 200 mg/kg dose of cyclophosphamide (CY) by i.p. on day −3. Prolonged immunosuppression was maintained for 30 days by giving each animal a 200 mg/kg dose of CY by i.p. every 10 days after infection. On day 0, mice of different experimental groups were intravenously infected with 2×10^8 viable C. auris yeast cells.
The preventive effect of peptide-specific mAbs, for example 7H6A2 and 1D4H5, and combinations thereof, for example 7H6A2+1D4H5, was examined by passive transfer experiments. Each mAb was appropriately diluted in DPBS to give a 40,000-100,000 ELISA titer against each corresponding specific peptide coated on the plate. For testing, mice received 0.5 ml of each mAb or 1 ml of two mAbs in combination (0.5 ml of each) intraperitoneally. Control mice received 0.5 ml of the DPBS diluents.
Protective mAbs protect immunocompromised mice against disseminated infection by Candida auris: The possibility of using passive mAb immunotherapy in immunocompromised mice against disseminated candidiasis by C. auris. The protective effect of mAb 7H6A2, 1D4H5 or these two mAbs in combination against the disease in immunocompromised mice was examined by passive transfer experiments (FIG. 14). Mice received either mAb 7H6A2 or 1D4H5 or the two mAbs in combination had reduced CFUs in kidneys (FIG. 14A) and in brains (FIG. 14B) as compared with control mice.

C. auris AR-0386 = experiment: Passive transfer of mAbs or two mAbs in combination in A/J mouse model of invasive C. auris infection; type: in vivo, Candida auris; conditions: Table 19; A/J strain mice
Experimental: A. Complement protein C5-defecient A/J mice were treated with one of the five mAb or with DPBS as a vehicle control. The following day, mice were challenged with 1×10^8 C. auris cells/100 ul DPBS dose per mouse. […] B. Fungal burdens in the kidneys (top), heard (center), and brain (bottom).
Identified protective mAbs were obtained by use of standard hybridoma technique and purified by use of protein A/G. A/J mice were given an i.p. dose of either single mAb or two mAbs in combination 24 hours before hematogensous challenge with a lethal dose (2×108) of C. auris AR-0386 live cells. Mice received either 9G2F5 alone or 6H1G8 alone or 9F2G5 and 3H7E3 in combination had 40% survival rate respectively, with prolonged survival as compared to control animals that received DPBS buffer control.
Evaluation and validation of a panel of peptide-specific monoclonal antibodies (mAbs) as a passive immunization strategy protect against invasive C. auris infection in established A/J mouse model of human disease.
The monoclonal antibodies used in this experiment were: • 6H1G8 (IgG2b), α-Hwp1 (Hyphal wall protein) • 3E2G2 (IgG2b), α-Fba (Fructose bisphosphate aldolase) • 10E7E2 (IgG1), α-GPV-P3 (General peptide vaccine 3 from Phosphoglycerate kinase) • 9F2G5 (IgG2a), α-Pgk1 (Phosphoglycerate kinase) • 3H7E3 (IgG1), α-Met6 (Methyltetrahydropteroyltriglutamate)

C. albicans 3153A = experiment: Passive transfer of mAbs or mAb cocktails i.p. before lethal i.v. challenge, mouse model of human disseminated candidiasis; type: in vivo, Candida albicans; conditions: Table 14
Experimental: Passive transfer of MAbs by intraperitoneal (i.p.) route. The preventive effect of peptide-specific mAbs listed in Table 3 and Table 4 in naïve mice was examined by passive transfer experiments. […] For testing, mice received 0.5 ml of each mAb or 1 ml of two mAbs in combination (0.5 ml of each) intraperitoneally. […] The negative control materials tested in mice were single mAb or DPBS. Control mice received 0.5 ml of the DPBS diluents or single mAb treatment. For each condition, 6- to 8-week-old female BALB/c mice (NCI) were given 0.5 ml of test mAb, or 1 ml two mAb cocktails or control materials intraperitoneally, followed 4 h later by 0.1 ml intravenously of defined lethal dose of yeast cells per milliliter of DPBS. Mice were divided into groups with five mice each and three independent experiments were carried out. In some experiments, mice were given the same dose of mAbs or control materials on every other day post-challenge for two weeks, as compared to the protective efficacy of mAb in combinations. All mice were sacrificed on day 50. For animal groups that were challenged non-albicans candida species, determined optimal challenge doses were applied for each candida strain.
The hybridoma clones that produce the universal peptide specific mAbs listed above were generated from mice vaccinated with peptide-pulsed dendritic cell (DC) preparation as described previously (6). The isotype of mAb was determined with a Mouse Monoclonal Antibody Isotyping Kit (Pierce, USA). […] In detail, BALB/c mice were given an i.p dose of each mAb four hours before hematogenous challenged with a lethal dose of C. albicans3153A cells. […] Importantly, passive protection was prevented by removal of the mAbs by absorption with Candida cells before transfer, which provided strong additional evidence for the protection being due to the mAb.
The three cell wall proteins were selected because of expression during human candidiasis and cell wall association, and included fructose-bisphosphate aldolase (Fba); methyltetrahydropteroyltriglutamate-homocysteine methyltransferase (Met6); hyphal wall protein-1 (Hwp1). The hybridoma clones listed at Table 5, which produce the peptide specific mAbs, were generated from mice vaccinated with peptide-pulsed dendritic cell (DC) preparation as described previously (6). The isotype of mAb was determined with a Mouse Monoclonal Antibody Isotyping Kit (Pierce, USA). […] Importantly, passive protection was prevented by removal of the mAbs by absorption with Candida cells before transfer, which provided strong additional evidence for the protection being due to the mAb).
The preventive effect of each universal peptide-specific mAb was examined by passive transfer experiments. […] For testing, 5 mice of each tested group received 0.5 ml of each mAb intraperitoneally. The negative control materials tested in mice were mAbs absorbed with C. albicans yeast cells (3153A) and DPBS. Control mice received 0.5 ml of the DPBS diluents or adsorbed mAb solution. For each condition, 6- to 8-week-old female BALB/c mice (NCI) were given 0.5 ml of test mAb, or control materials intraperitoneally, followed 4 h later by 0.1 ml intravenously of a suspension containing lethal dose of Candida cells per milliliter of DPBS. Mice were divided into groups with five mice each and three independent experiments were carried out. We have developed neutropenic murine models of disseminated infection by C. glabrata, C. tropicalis and C. parapsilosis. To induce neutropenia, naïve mice received a 200 mg/kg dose of cyclophosphamide (CY) by i.p. on day −3. Prolonged neutropenia were maintained for 30-50 days by giving each animal a 150 mg/kg dose of CY by i.p. every 10 days after infection.

Row | Molecule | survival [1] | live fungal cells (CFU) in kidneys as compared to controls [1] | protection against disseminated candidiasis caused by C. glabrata [2] | protection against disseminated candidiasis caused by C. albicans (C. albicans) | CFUs in kidneys as compared to controls (C. albicans) | specific antibody responses [3] | CFUs in kidneys as compared with control mice (C. auris; FIG. 14A) | CFUs in brains as compared with control mice (C. auris; FIG. 14B) | Protection against C. auris (C. auris AR-0386) | Protection against C. auris (grade word) (C. auris AR-0386) | Protection of adsorbed mAb (C. albicans 3153A; mAb removed by absorption with Candida cells before transfer) | Protection (C. albicans 3153A; single mAb, C. albicans) | Protection (grade word) (C. albicans 3153A; single mAb, C. albicans)
1 | FbaU1: putative universal Fba peptide; Table 17 equates it with Fba3 (SEQ ID NO: 36) but tested as a separate peptide (FAIPAINVTSSSTVVAALE) | 100% | significantly reduced live fungal cells | high degree protection | good protective responses; also recorded: high degree protection | reduced or non-detectable CFUs | able to induce specific antibody responses | – | – | – | – | – | – | –
2 | YDQVLDLSLLFNAIP [Met6-2] | 80% | significantly reduced live fungal cells | high degree protection | good protective responses; also recorded: high degree protection | reduced or non-detectable CFUs | able to induce specific antibody responses | – | – | – | – | – | – | –
3 | B1 | – | – | – | – | – | – | reduced CFUs | reduced CFUs; also recorded: no CFU detected | 80-100% | High | None | (80-90%) | High
